The source of these data is patent US10538554B2, “Peptides and uses therefor as antiviral agents” (priority 2015, dated 2020).

Molecules are shown by their SMILES. Bridge positions count the residues as written; N and C are the ends. Square brackets hold non-standard residues; d marks the D form. Peptide text beside a SMILES is read from it.

The test system of this assay is H1N1 A/PR/8-MC/1934. Also on record: species or system BALB/c female mice. The following applies: mouse, in vivo.

In the case of `CC[C@@H](C)[C@H]1NC(=O)[C@@H](Cc2ccccc2)NC(=O)[C@@H]([C@H](C)O)NC(=O)[C@@H](Cc2ccccc2)NC(=O)[C@@H](Cc2c[nH]c3ccccc23)NC(=O)[C@@H]([C@H](C)O)NC(=O)[C@H](NC(=O)[C@H](CCCCN)NC(=O)[C@H](CCCCN)NC(=O)[C@H](CCCNC(=N)N)NC(=O)[C@@H](N)CCCNC(=N)N)CSSC[C@H](C(=O)O)NC(=O)[C@@H](CC(N)=O)NC1=O` [PSP IV A17, H-RRKKctwftfinc-OH] (H-RRKK[dC][dT][dW][dF][dT][dF][dI][dN][dC]-OH; disulfide 5-13), the “morbidity of influenza infected mice” value is “completely inhibited the morbidity”.
